Test results as given in patent publication US11999716B2, “WDR5 inhibitors and modulators” (priority 2018, dated 2024).
Read-outs that look alike come from different tables or passages of the source.

How the values were obtained:
WDR5 = WDR5 (Homo sapiens, UniProt P61964); experiment: biochemical; format: binding
[1] = tested on: MV4:11 human cancer cell lines; experiment: Cellular viability / anti-proliferative activity, CellTiter-Glo, 5 day protocol; format: cell-based; settings: Homo sapiens, MV4-11, 120 h, read-out: GI50 on cellular proliferation of MV4:11 human cancer cell lines
Summary of the method: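 Cells seeded at 200 per well (7200 cells/mL) with compound in 2-fold serial dilutions from 30 μM top (22 points), 0.3% DMSO final. Viability read by CellTiter-Glo luminescence after 5 days; GI50 from sigmoidal dose-response fit, mean of at least two replicates.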

[2] = […], 10mer-Thr-FAM probe 150 nM, Tb-anti-HIS 1 nM, 60 min, room temperature, read-out: Ki for Inhibition of WDR5 by TR-FRET assay

SMILES	Ki (WDR5; [2]) [nM]	GI50 [1] [nM]	Ki (WDR5; Ki for Inhibition of WDR5 by TR-FRET assay) [nM]
COc1cc(CN2CCc3c(cc(Cn4ccn(C)c4=N)cc3-c3ccc(F)cc3C)C2=O)cc(OC)c1 [Example 29, 2-(3,5-Dimethoxybenzyl)-5-(4-fluoro-2-methylphenyl)-7-((2-imino-3-methyl-2,3-dihydro-1H-imidazol-1-yl)methyl)-3,4-dihydroisoquinolin-1(2H)-one]	< 0.05	63	–
CCn1cc(-c2cc(Cn3ccsc3=N)cc3c2CCN(Cc2cc(C)nn2C)C3=O)c(C(F)(F)F)n1 [Example 106, 2-((1,3-Dimethyl-1H-pyrazol-5-yl)methyl)-5-(1-ethyl-3-(trifluoromethyl)-1H-pyrazol-4-yl)-7-((2-iminothiazol-3(2H)-yl)methyl)-3,4-dihydroisoquinolin-1(2H)-one]	–	182	< 0.05
COc1cc(CN2CCc3c(cc(CN4CCCC4=N)cc3-c3cccnc3C(F)(F)F)C2=O)cc(OC)c1 [Example 107, 2-(3,5-Dimethoxybenzyl)-7-((2-iminopyrrolidin-1-yl)methyl)-5-(2-(trifluoromethyl)pyridin-3-yl)-3,4-dihydroisoquinolin-1(2H)-one]	0.11	–	–
CCn1cc(-c2cc(Cc3cncn3C)cc3c2CCN([C@@H](C)c2cc(OC)ccn2)C3=O)c(C(F)(F)F)n1 [Example 257, (S)-5-(1-Ethyl-3-(trifluoromethyl)-1H-pyrazol-4-yl)-2-(1-(4-methoxypyridin-2-yl)ethyl)-7-((1-methyl-1H-imidazol-5-yl)methyl)-3,4-dihydroisoquinolin-1(2H)-one]	–	< 50	–
